Source: PMC8585833, “Serum concentrations of antidepressants, antipsychotics, and antiepileptics over the bariatric surgery procedure” (European Journal of Clinical Pharmacology, 2021)
Read-outs that look alike come from different tables or passages of the source.

What was measured:
[1] = Dose-adjusted steady-state trough serum concentrations before and after low-calorie diet and bariatric surgery; assay type: in vivo, human; conditions: for Reduction of dose-adjusted concentration on the last day of sampling: post-surgery versus pre-surgery, substances with samples from six or more participants; for Course of dose-adjusted concentration after surgery: following the low-calorie diet; for Change in dose-adjusted concentration over the pre-surgery low-calorie diet: after the pre-surgery diet, before surgery, median weight reduction 6 kg
Text: We designed the study as a naturalistic longitudinal, prospective case series with intra-individual comparisons of drug concentrations over time, before and up to 1 year after the surgical procedure.
The participants contributed blood samples to the current study during routine pre-surgery visits before, and post-surgery visits about 8 weeks, 6 months, and 1 year after, the surgery. Pre-surgery sampling generally occurred twice: at an initial preoperative assessment visit, and just before surgery. Between these visits, that is, before surgery, patients were required to adhere to a low-calorie diet and show a weight reduction. The samples were stored as serum in −80 °C at a biobank, and analysed after all samples had been collected.
Before every routine visit at which the sampling was to occur, we contacted the participants by telephone to systematically obtain information on the current dose as well as adherence to the drug treatment in question over the 2 preceding weeks. Samples were excluded from the data set if non-adherence less than four elimination half-lives prior to sampling was reported; exceptions were made for occasional missed doses of fluoxetine. Half-lives applied were those described for a drug or its metabolite in the summary of product characteristics. We also asked for and recorded concomitant drug treatment, weight, and smoking status. To be able to relate potential changes in concentration to health consequences, we asked the participants during the follow-up phone calls, using an open question, if anything had happened to their health since the last visit. To obtain trough blood concentrations, we strived to schedule the routine visits before lunchtime and the participants were instructed not to take morning tablets before the sampling.
Specific substances were analysed concomitantly, using clinical routine methods, at accredited laboratories at the Department of Clinical Chemistry, Sahlgrenska University Hospital, Gothenburg, Sweden, or (as for gabapentin, hydroxybupropion, mianserine, pregabalin, paroxetine and topiramate) at the Department of Clinical Pharmacology, St. Olav’s Hospital, Trondheim, Norway. Analysis methods were based on liquid chromatography/tandem mass spectrometry or (for lamotrigine and valproic acid) enzyme immunoassay.
Statistical analyses were performed using SPSS, version 23.0 (IBM SPSS Statistics for Windows, Armonk, NY, USA). Participants treated with the same substance before and after surgery, with one or more trough sample concentrations available, were included in the analysis. To allow interindividual and intraindividual comparisons, serum concentrations were adjusted for defined daily dose (DDD). For example, since DDD for citalopram is 20 mg, a DDD-adjusted citalopram concentration of 100 nmol/L could represent a measured concentration of 50, 100, or 200 nmol/L, given a daily dose of 10, 20, or 40 mg, respectively. To compare pre- to post-surgery concentrations, as well as pre- to post-diet concentrations, we used Wilcoxon signed rank test for substances with samples available for six or more individuals. We used Spearman’s correlation to explore the relationship between the ratio of the post-/pre-diet concentrations and (i) the distribution coefficient for the drug in question, i.e., the logarithm of the ratio of its concentration in a lipophilic and a hydrophilic solution (logD), as well as (ii) the weight loss in kilograms for pregabalin.

[2] = source not stated, cited from earlier work
[3] = historical data or matched non-surgery subjects as controls; cited from earlier work
[4] = Table 2A, trough serum, adjusted for dose in DDDs
[5] = Table 2A, trough serum, adjusted for dose in DDDs, last observation carried forward, median 379 days after surgery
[6] = Table 2B, trough serum, adjusted for dose in DDDs, after pre-surgery low-calorie diet
[7] = Table 2B, trough serum, adjusted for dose in DDDs, before low-calorie diet
[8] = Table 2A, antiepileptics, trough serum, adjusted for dose in DDDs
[9] = Table 2A, antiepileptics, trough serum, adjusted for dose in DDDs, last observation carried forward, median 379 days after surgery
[10] = Table 2B, antiepileptics, trough serum, adjusted for dose in DDDs, after pre-surgery low-calorie diet
[11] = Table 2B, antiepileptics, trough serum, adjusted for dose in DDDs, before low-calorie diet
[12] = human, in vivo, 379 days after surgery (median), trough

CN(C)CCC=C1c2ccccc2CCc2ccccc21 [Amitriptyline]
Dose-adjusted drug concentration Median (IQR), Pre-diet/pre-surgery [1, 4]: 283 (N/A) nmol/L
Dose-adjusted drug concentration Median (IQR), Post-surgery [1, 5]: 218 (N/A) nmol/L
Dose-adjusted drug concentration Median (IQR), post-diet [1, 6]: 279 (N/A) nmol/L
Dose-adjusted drug concentration Median (IQR), pre-diet [1, 7]: 283 (N/A) nmol/L

CN(C)CCCC1(c2ccc(F)cc2)OCc2cc(C#N)ccc21 (stereo not drawn) [Citalopram]
Concentration, Post-surgery ([1]; Case 1, GBP, day +252, drug dose 10 mg): 69 nM
Concentration, Post-surgery ([1]; Case 1, GBP, day +374, drug dose 20 mg): 158 nM
Concentration, Baseline ([1]; Case 1, GBP, drug dose 10 mg): 137 nM
Concentration, Post-surgery ([1]; Case 2, GBP, day +178, drug dose 10 mg): 42 nM
Concentration, Post-surgery ([1]; Case 2, GBP, day +386, drug dose 20 mg): 90 nM
Concentration, Baseline ([1]; Case 2, GBP, drug dose 10 mg): 89 nM
Reduction of dose-adjusted concentration on the last day of sampling [1]: 19%

CNCC[C@H](Oc1cccc2ccccc12)c1cccs1 [Duloxetine]
Course of dose-adjusted concentration after surgery [1]: continued to decrease
Change in dose-adjusted concentration over the pre-surgery low-calorie diet [1]: varied
Dose-adjusted drug concentration Median (IQR), Pre-diet/pre-surgery ([1]; human, in vivo): 127 (96–203) nmol/L
Dose-adjusted drug concentration Median (IQR), post-diet ([1]; human, in vivo): 105 (64–235) nmol/L
Dose-adjusted drug concentration Median (IQR), pre-diet ([1]; human, in vivo): 127 (96–203) nmol/L
concentration at 379 days after surgery (median), trough ([1]; human, in vivo): 82 nM
Reduction of dose-adjusted concentration on the last day of sampling [1]: 35%
logD ([2]; octanol/water, pH 7.4): 1.54

CNCCC(Oc1ccc(C(F)(F)F)cc1)c1ccccc1 (stereo not drawn) [Fluoxetine]
Course of dose-adjusted concentration after surgery [1]: continued to increase also after surgery
Dose-adjusted drug concentration Median (IQR), Pre-diet/pre-surgery ([1]; human, in vivo): 221 (157–371) nmol/L
Dose-adjusted drug concentration Median (IQR), post-diet ([1]; human, in vivo): 263 (182–333) nmol/L
Dose-adjusted drug concentration Median (IQR), pre-diet ([1]; human, in vivo): 259 (147–379) nmol/L
concentration at 379 days after surgery (median), trough ([1]; human, in vivo): 294 nM

NCC1(CC(=O)O)CCCCC1 [Gabapentin]
Dose-adjusted drug concentration Median (IQR), Pre-diet/pre-surgery [1, 8]: 34 (N/A) µmol/L
Dose-adjusted drug concentration Median (IQR), Post-surgery [1, 9]: 35 (N/A) µmol/L
Dose-adjusted drug concentration Median (IQR), post-diet [1, 10]: 43 (N/A) µmol/L
Dose-adjusted drug concentration Median (IQR), pre-diet [1, 11]: 28 (N/A) µmol/L
Change in dose-adjusted concentration over the pre-surgery low-calorie diet [1]: increased

C[C@H]1NC(C)(C)CO[C@]1(O)c1cccc(Cl)c1 [Hydroxybupropion]
Dose-adjusted drug concentration Median (IQR), Pre-diet/pre-surgery [1, 4]: 3,997 (N/A) nmol/L
Dose-adjusted drug concentration Median (IQR), Post-surgery [1, 5]: 3,298 (N/A) nmol/L
Dose-adjusted drug concentration Median (IQR), post-diet [1, 6]: 3,067 (N/A) nmol/L
Dose-adjusted drug concentration Median (IQR), pre-diet [1, 7]: 2,732 (N/A) nmol/L

Nc1nnc(-c2cccc(Cl)c2Cl)c(N)n1 [Lamotrigine]
Dose-adjusted drug concentration Median (IQR), Pre-diet/pre-surgery [1, 8]: 17 (15–23) µmol/L
Dose-adjusted drug concentration Median (IQR), post-diet [1, 10]: 23 (19–29) µmol/L
Dose-adjusted drug concentration Median (IQR), pre-diet [1, 11]: 17 (15–25) µmol/L
Change in dose-adjusted concentration over the pre-surgery low-calorie diet [1]: increased
concentration at 379 days after surgery (median), trough ([1]; human, oral, Table 2A, antiepileptics, trough serum, adjusted for dose in DDDs, last observation carried forward, median 379 days after surgery, read-out: Dose-adjusted drug concentration Median (IQR), Post-surgery): 18000 nM

CN1CCN2c3ncccc3Cc3ccccc3C2C1 (stereo not drawn) [Mirtazapine]
Concentration, Post-surgery ([1]; Case 3, GBP, day +68, drug dose 15 mg): 30 nM
Concentration, Post-surgery ([1]; Case 3, GBP, day +368, drug dose 30 mg): 203 nM
Concentration, Baseline ([1]; Case 3, GBP, drug dose 15 mg): 96 nM
Concentration, Post-surgery ([1]; Case 4, Sleeve, day 213, drug dose 30 mg): 87 nM
Concentration, Post-surgery ([1]; Case 4, Sleeve, day 393, drug dose 45 mg): 119 nM
Concentration, Baseline ([1]; Case 4, Sleeve, drug dose 30 mg): 140 nM
Change in dose-adjusted concentration over the pre-surgery low-calorie diet [1]: decreased
Dose-adjusted drug concentration Median (IQR), Pre-diet/pre-surgery ([1]; human, in vivo): 148 (131–170) nmol/L
Dose-adjusted drug concentration Median (IQR), post-diet ([1]; human, in vivo): 76 (50–102) nmol/L
Dose-adjusted drug concentration Median (IQR), pre-diet ([1]; human, in vivo): 138 (120–157) nmol/L
concentration at 379 days after surgery (median), trough ([1]; human, in vivo): 88 nM
Reduction of dose-adjusted concentration on the last day of sampling [1]: 41%

Cc1cc2c(s1)Nc1ccccc1N=C2N1CCN(C)CC1 [Olanzapine]
Dose-adjusted drug concentration Median (IQR), Pre-diet/pre-surgery ([1]; human, in vivo): 113 (N/A) nmol/L

Fc1ccc([C@@H]2CCNC[C@H]2COc2ccc3c(c2)OCO3)cc1 [Paroxetine]
Dose-adjusted drug concentration Median (IQR), Pre-diet/pre-surgery ([1]; human, in vivo): 22 (N/A) nmol/L
Dose-adjusted drug concentration Median (IQR), post-diet ([1]; human, in vivo): 69 (N/A) nmol/L
Dose-adjusted drug concentration Median (IQR), pre-diet ([1]; human, in vivo): 22 (N/A) nmol/L
Dose-adjusted drug concentration Median (IQR), Post-surgery [1, 12]: 167 (N/A) nmol/L

OCCOCCN1CCN(C2=Nc3ccccc3Sc3ccccc32)CC1 [Quetiapine]
Change in dose-adjusted concentration over the pre-surgery low-calorie diet [1]: decreased
Dose-adjusted drug concentration Median (IQR), Pre-diet/pre-surgery ([1]; human, in vivo): 848 (N/A) nmol/L
Dose-adjusted drug concentration Median (IQR), post-diet ([1]; human, in vivo): 260 (N/A) nmol/L
Dose-adjusted drug concentration Median (IQR), pre-diet ([1]; human, in vivo): 848 (N/A) nmol/L
Dose-adjusted drug concentration Median (IQR), Post-surgery [1, 12]: 239 (N/A) nmol/L

CN[C@H]1CC[C@@H](c2ccc(Cl)c(Cl)c2)c2ccccc21 [Sertraline]
Concentration, Post-surgery ([1]; Case 3, GBP, day +68, drug dose 200 mg): 66 nM
Concentration, Post-surgery ([1]; Case 3, GBP, day +368, drug dose 200 mg): 78 nM
Concentration, Baseline ([1]; Case 3, GBP, drug dose 200 mg): 130 nM
Change in dose-adjusted concentration over the pre-surgery low-calorie diet [1]: decreased
Dose-adjusted drug concentration Median (IQR), Pre-diet/pre-surgery ([1]; human, in vivo): 51 (27–84) nmol/L
Dose-adjusted drug concentration Median (IQR), post-diet ([1]; human, in vivo): 39 (23–53) nmol/L
Dose-adjusted drug concentration Median (IQR), pre-diet ([1]; human, in vivo): 66 (43–87) nmol/L
concentration at 379 days after surgery (median), trough ([1]; human, in vivo): 25 nM
Reduction of dose-adjusted concentration on the last day of sampling [1]: 51%

CC1(C)O[C@@H]2[C@@H](CO[C@@]3(COS(N)(=O)=O)OC(C)(C)O[C@@H]23)O1 [Topiramate]
Dose-adjusted drug concentration Median (IQR), Pre-diet/pre-surgery [1, 8]: 33 (N/A) µmol/L
Dose-adjusted drug concentration Median (IQR), Post-surgery [1, 9]: 37 (N/A) µmol/L
Dose-adjusted drug concentration Median (IQR), post-diet [1, 10]: 31 (N/A) µmol/L
Dose-adjusted drug concentration Median (IQR), pre-diet [1, 11]: 39 (N/A) µmol/L

CCCC(CCC)C(=O)O [Valproic acid]
Dose-adjusted drug concentration Median (IQR), Pre-diet/pre-surgery [1, 8]: 533 (N/A) µmol/L
Dose-adjusted drug concentration Median (IQR), Post-surgery [1, 9]: 529 (N/A) µmol/L
Dose-adjusted drug concentration Median (IQR), post-diet [1, 10]: 759 (N/A) µmol/L
Dose-adjusted drug concentration Median (IQR), pre-diet [1, 11]: 737 (N/A) µmol/L

COc1ccc(C(CN(C)C)C2(O)CCCCC2)cc1 (stereo not drawn) [Venlafaxine]
Dose-adjusted drug concentration Median (IQR), Pre-diet/pre-surgery [1, 4]: 173 (88–443) nmol/L
Dose-adjusted drug concentration Median (IQR), post-diet [1, 6]: 132 (87–215) nmol/L
Dose-adjusted drug concentration Median (IQR), pre-diet [1, 7]: 172 (79–399) nmol/L
concentration at 379 days after surgery (median), trough ([1]; human, oral, Table 2A, trough serum, adjusted for dose in DDDs, last observation carried forward, median 379 days after surgery, read-out: Dose-adjusted drug concentration Median (IQR), Post-surgery): 168 nM

CN(C)C(=N)N=C(N)N [metformin]
Concentration change after the bariatric surgery procedure [3]: appeared to increase

COc1c(N2C[C@@H]3CCCN[C@@H]3C2)c(F)cc2c(=O)c(C(=O)O)cn(C3CC3)c12 [moxifloxacin]
Concentration change after the bariatric surgery procedure [3]: appeared to increase

NCCC(Oc1ccc(C(F)(F)F)cc1)c1ccccc1 (stereo not drawn) [norfluoxetine]
Course of dose-adjusted concentration after surgery [1]: continued to increase also after surgery

CO[C@H]1C[C@@H]2CC[C@@H](C)[C@@](O)(O2)C(=O)C(=O)N2CCCC[C@H]2C(=O)O[C@H]([C@H](C)C[C@@H]2CC[C@@H](O)[C@H](OC)C2)CC(=O)[C@H](C)/C=C(\C)[C@@H](O)[C@@H](OC)C(=O)[C@H](C)C[C@H](C)/C=C/C=C/C=C/1C [sirolimus]
Concentration change after the bariatric surgery procedure [3]: appeared to decrease
logD ([2]; selection limit for extremely hydrophilic or extremely lipophilic substances in literature search): > 4

CC/C(=C(\c1ccccc1)c1ccc(OCCN(C)C)cc1)c1ccccc1 [tamoxifen]
Concentration change after the bariatric surgery procedure [3]: appeared to decrease
